Structures can show the parent of a compound that is named as a salt.
Test: dynamic vapor absorption and desorption analysis (DVS)
Type: physicochemical
Conditions: for weight gain under 80% relative humidity / hygroscopicity of the sample: DVS, 25° C.; for hygroscopicity of the sample: graded in words; for crystalline form of the sample after the DVS test: XRPD overlay before and after DVS test
Description: The instrument used in dynamic vapor absorption and desorption analysis (DVS) was DVS Intrinsic (SMS, UK). The sample was placed in the sample basket of the instrument for automatic weighing, then heated to 40° C., and dried under a nitrogen stream to a dm/dt of less than 0.002%. The measurement was started after the temperature was dropped to 25° C., The instrument parameters were as follows.
Time per step: 60 min Sample temperature: 25° C. Cycle: entire cycle
Data storage rate: 5 s Total flow rate: 200 sccm Total flow rate after the test: 200 sccm

SMILES | weight gain under 80% relative humidity | hygroscopicity of the sample | crystalline form of the sample after the DVS test
C=CC(=O)Nc1cc(Nc2nccc(-c3cn(CC(F)(F)F)c4ccccc34)n2)c(OC)cc1N(C)CCN(C)C [crystalline form I of p-toluenesulfonate] | about 0.55% | slightly hygroscopic | does not change
C=CC(=O)Nc1cc(Nc2nccc(-c3cn(CC(F)(F)F)c4ccccc34)n2)c(OC)cc1N(C)CCN(C)C [crystalline form I of phosphate] | about 0.61% | slightly hygroscopic | does not change
C=CC(=O)Nc1cc(Nc2nccc(-c3cn(CC(F)(F)F)c4ccccc34)n2)c(OC)cc1N(C)CCN(C)C [crystalline form III of hydrochloride] | about 1.86% | slightly hygroscopic | does not change

More lines, now with the values ahead:

weight gain under 80% relative humidity | hygroscopicity of the sample | crystalline form of the sample after the DVS test | SMILES
about 0.41% | slightly hygroscopic | does not change | C=CC(=O)Nc1cc(Nc2nccc(-c3cn(CC(F)(F)F)c4ccccc34)n2)c(OC)cc1N(C)CCN(C)C [crystalline form I of benzenesulfonate]
about 0.57% | slightly hygroscopic | does not change | C=CC(=O)Nc1cc(Nc2nccc(-c3cn(CC(F)(F)F)c4ccccc34)n2)c(OC)cc1N(C)CCN(C)C [crystalline form I of succinate]
about 3.31% | hygroscopic | does not change | C=CC(=O)Nc1cc(Nc2nccc(-c3cn(CC(F)(F)F)c4ccccc34)n2)c(OC)cc1N(C)CCN(C)C [crystalline form I of sulfate]

— US20220213066A1, “SALTS OF A CLASS OF PYRIMIDINE COMPOUNDS, POLYMORPHS, AND PHARMACEUTICAL COMPOSITIONS THEREOF, PREAPRATION METHODS THEREFOR AND USES THEREOF” (INVENTISBIO CO., LTD., priority 2019, published 2022)
